What was measured:
MYT1 protein [1] = target: T1, MYT1 protein (Homo sapiens (Human), UniProt Q99640); assay: MYT1 kinase activity inhibition test (ELISA, phosphorylation of Y15 of CDK1); assay type: biochemical; details: phosphorylation level of Y15 of CDK1 protein caused by MYT1 protein, 60 minutes
How it was run: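 Recombinant human MYT1 (5 nM working solution) was incubated 60 min at room temperature with compound and ATP (83.3 μM working solution) on a CDK1-coated ELISA plate. CDK1 Y15 phosphorylation was detected with HRP anti-phosphotyrosine, read as A450 minus A590. Inhibition was normalised to no-compound (100%) and no-enzyme (0%) signals to derive IC50.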

LU65 = assay: Cytotoxicity test with pemetrexed upon addition of each example compound (CellTiter-Glo); assay type: cell-based, human; details: combination with pemetrexed, LU65 cells, 7 days; maximum value, at the MYT1 inhibitor and pemetrexed concentrations
How it was run: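 LU65 lung cancer cells (RB1 S82* truncation, reduced RB1 function) in RPMI-1640/10% FBS were treated with pemetrexed plus each compound over concentration series, 7 days at 37 °C. ATP measured by CellTiter-Glo luminescence; survival relative to DMSO after blank subtraction, cytotoxicity = 100% minus survival.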

MYT1 protein [2] = target: T1, MYT1 protein; assay: Test for binding to ATP binding site of MYT1 (Kinase Tracer 178 / Eu-Anti-GST antibody TR-FRET); details: ATP binding site of MYT1, 30 minutes at room temperature

T1 sequence (Q99640 whole entry): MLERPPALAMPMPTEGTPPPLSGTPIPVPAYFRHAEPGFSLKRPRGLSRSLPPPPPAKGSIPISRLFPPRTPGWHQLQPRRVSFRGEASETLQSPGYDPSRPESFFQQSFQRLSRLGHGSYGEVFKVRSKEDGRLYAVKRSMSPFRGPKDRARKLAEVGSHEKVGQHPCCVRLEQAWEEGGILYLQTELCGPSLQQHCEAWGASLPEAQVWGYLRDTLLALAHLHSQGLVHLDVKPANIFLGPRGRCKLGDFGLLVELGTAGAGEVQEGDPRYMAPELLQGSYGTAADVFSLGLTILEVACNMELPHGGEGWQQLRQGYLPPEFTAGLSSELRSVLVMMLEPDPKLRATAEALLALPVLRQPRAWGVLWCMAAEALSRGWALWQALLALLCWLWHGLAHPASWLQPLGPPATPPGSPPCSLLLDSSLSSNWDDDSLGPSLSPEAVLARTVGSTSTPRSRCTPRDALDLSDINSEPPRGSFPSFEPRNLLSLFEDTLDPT

SMILES | IC50 (MYT1 protein [1]) [nM] | IC50 (MYT1 protein [2]) [nM] | Bliss Score (Max) (LU65) [%] | HSA Score (MAX) (LU65) [%]
Nc1c(-c2ccc(Cl)c3[nH]ncc23)c2ccc3ncccc3c2[nH]c1=O [Compound C144, 3-Amino-4-(7-chloro-1H-indazol-4-yl)-1H-1,7-phenanthrolin-2-one] | 0.32 | 7 | 39 | 47
Nc1c(-c2ccc(F)c3[nH]ncc23)c2cc(C3CCNC3)c3ncccc3c2[nH]c1=O.O=CO (stereo not drawn) [Compound C146, 3-Amino-4-(7-fluoro-1H-indazol-4-yl)-6-pyrrolidin-3-yl-1H-1,7-phenanthrolin-2-one; formate] | 16 | 3.4 | 44 | 44
Cc1cc2c(-c3c(F)ccc4[nH]ncc34)c(N)c(=O)[nH]c2c2cccnc12 [Compound C155, 3-Amino-4-(5-fluoro-1H-indazol-4-yl)-6-methyl-1H-1,7-phenanthrolin-2-one] | < 4.6 | 2.3 | 47 | 61
Nc1c(-c2cccc3[nH]ncc23)c2cc(C3CC3)c3ncccc3c2[nH]c1=O [Compound C185, 3-Amino-6-cyclopropyl-4-(1H-indazol-4-yl)-1H-1,7-phenanthrolin-2-one] | 0.31 | 2.8 | 55 | 68
Cc1cc2c(-c3cc(F)c(F)c4[nH]ncc34)c(N)c(=O)[nH]c2c2cccnc12 [Compound C190, 3-amino-4-(6,7-difluoro-1H-indazol-4-yl)-6-methyl-1H-1,7-phenanthrolin-2-one] | 0.34 | 2.5 | 48 | 66
Nc1c(-c2cc(F)c(Cl)c3[nH]ncc23)c2cc(C3CC3)c3ncccc3c2[nH]c1=O [Compound C195, 3-Amino-4-(7-chloro-6-fluoro-1H-indazol-4-yl)-6-cyclopropyl-1H-1,7-phenanthrolin-2-one] | 0.24 | 2.3 | 52 | 65
CC(=O)c1cc2c(-c3ccc(F)c4[nH]ncc34)c(N)c(=O)[nH]c2c2cccnc12 [Compound C200, 6-Acetyl-3-amino-4-(7-fluoro-1H-indazol-4-yl)-1H-1,7-phenanthrolin-2-one] | 7 | 2.4 | 44 | 56
Nc1c(-c2ccc(F)c3[nH]ncc23)c2cc(C3CC3)c3cccnc3c2[nH]c1=O [Compound D2, 3-Amino-6-cyclopropyl-4-(7-fluoro-1H-indazol-4-yl)-1H-1,10-phenanthrolin-2-one] | 15 | 4 | 42 | 51

Continued, in another order:

IC50 (MYT1 protein [1]) [nM] | IC50 (MYT1 protein [2]) [nM] | SMILES | Bliss Score (Max) (LU65) [%] | HSA Score (MAX) (LU65) [%]
0.086 | 0.91 | Nc1c(-c2ccc(F)c3[nH]ncc23)c2cc(O[C@H]3C[C@H](F)C3)c3nccnc3c2[nH]c1=O [Compound G16, 8-Amino-5-((1,3r)-3-fluorocyclobutyl)oxy-7-(7-fluoro-1H-indazol-4-yl)-10H-pyrido[2,3-f]quinoxalin-9-one] | 50 | 58
0.22 | 1.8 | Nc1c(-c2cccc3[nH]ncc23)c2cc(C3CC3)c3cnccc3c2[nH]c1=O [Compound P1, 3-Amino-6-cyclopropyl-4-(1H-indazol-4-yl)-1H-1,8-phenanthrolin-2-one] | 49 | 55
5.9 | 6.1 | Nc1c(-c2ccc(F)c3[nH]ncc23)c2cc(C3CC3)c3cnccc3c2[nH]c1=O.O=C(O)C(F)(F)F [Compound P4, 3-Amino-6-cyclopropyl-4-(7-fluoro-1H-indazol-4-yl)-1H-1,8-phenanthrolin-2-one 2,2,2-trifluoroacetate] | 56 | 67
0.83 | 9.3 | Nc1c(-c2cccc3[nH]ncc23)c2cc(C3CC3)c3ccncc3c2[nH]c1=O [Compound Q1, 3-Amino-6-cyclopropyl-4-(1H-indazol-4-yl)-1H-1,9-phenanthrolin-2-one] | 52 | 58
